Results published in article PMC9569420 (Communications Biology, 2022).
Where “and” joins values, the source holds several entries; their conditions need not be identical. Equal entries are not always repeated.

Experiments:
ARK5/NUAK1 = molecular target: T1, ARK5/NUAK1 (Homo sapiens, UniProt O60285); experiment: HotSpot kinase assay; format: biochemical; conditions: read-out: % Enzyme Activity (relative to DMSO controls)
T1 construct: purchased Reaction Biology Corporation

CDK19/cyclin C = molecular target: T2, CDK19/cyclin C (Homo sapiens, UniProt Q9BWU1); experiment: HotSpot kinase assay; format: biochemical; conditions: read-out: % Enzyme Activity (relative to DMSO controls)
T2 construct: purchased Reaction Biology Corporation

CDK2/cyclin E2 = molecular target: T3, CDK2/cyclin E2 (Homo sapiens, UniProt P24941); experiment: HotSpot kinase assay; format: biochemical; conditions: read-out: % Enzyme Activity (relative to DMSO controls)
T3 construct: purchased Reaction Biology Corporation

CDK3/cyclin E = molecular target: T4, CDK3/cyclin E (Homo sapiens, UniProt Q00526); experiment: HotSpot kinase assay; format: biochemical; conditions: read-out: % Enzyme Activity (relative to DMSO controls)
T4 construct: purchased Reaction Biology Corporation

CK1a1 = molecular target: T5, CK1a1 (Homo sapiens, UniProt P48729); experiment: HotSpot kinase assay; format: biochemical; conditions: read-out: % Enzyme Activity (relative to DMSO controls)
T5 construct: purchased Reaction Biology Corporation

DYRK1/DYRK1A = molecular target: T6, DYRK1/DYRK1A (Homo sapiens, UniProt Q13627); experiment: HotSpot kinase assay; format: biochemical; conditions: read-out: % Enzyme Activity (relative to DMSO controls)
T6 construct: purchased Reaction Biology Corporation

DYRK1B = molecular target: T7, DYRK1B (Homo sapiens, UniProt Q9Y463); experiment: HotSpot kinase assay; format: biochemical; conditions: read-out: % Enzyme Activity (relative to DMSO controls)
T7 construct: purchased Reaction Biology Corporation

EGFR = molecular target: T8, EGFR (Homo sapiens, UniProt P00533); experiment: biochemical
T8 construct: purchased Reaction Biology Corporation

EPHA2 = molecular target: T9, EPHA2 (Homo sapiens, UniProt P29317); experiment: HotSpot kinase assay; format: biochemical; conditions: read-out: % Enzyme Activity (relative to DMSO controls)
T9 construct: purchased Reaction Biology Corporation

ERN1/IRE1 = molecular target: T10, ERN1/IRE1 (Homo sapiens, UniProt O75460); experiment: HotSpot kinase assay; format: biochemical; conditions: read-out: % Enzyme Activity (relative to DMSO controls)
T10 construct: purchased Reaction Biology Corporation

FGFR1 = molecular target: T11, FGFR1 (Homo sapiens, UniProt P11362); experiment: HotSpot kinase assay; format: biochemical; conditions: read-out: % Enzyme Activity (relative to DMSO controls)
T11 construct: purchased Reaction Biology Corporation

FGFR4 = molecular target: T12, FGFR4 (Homo sapiens, UniProt P22455); experiment: HotSpot kinase assay; format: biochemical; conditions: read-out: % Enzyme Activity (relative to DMSO controls)
T12 construct: purchased Reaction Biology Corporation

FLT3 = molecular target: T13, FLT3 (Homo sapiens, UniProt P36888); experiment: HotSpot kinase assay; format: biochemical; conditions: read-out: % Enzyme Activity (relative to DMSO controls)
T13 construct: purchased Reaction Biology Corporation

IKKa/CHUK = molecular target: T14, IKKa/CHUK (Homo sapiens, UniProt O15111); experiment: HotSpot kinase assay; format: biochemical; conditions: read-out: % Enzyme Activity (relative to DMSO controls)
T14 construct: purchased Reaction Biology Corporation

LCK = molecular target: T15, LCK (Homo sapiens, UniProt P06239); experiment: HotSpot kinase assay; format: biochemical; conditions: read-out: % Enzyme Activity (relative to DMSO controls)
T15 construct: purchased Reaction Biology Corporation

MKK7 = molecular target: T16, MKK7 (Homo sapiens, UniProt O14733); experiment: HotSpot kinase assay; format: biochemical; conditions: read-out: % Enzyme Activity (relative to DMSO controls)
T16 construct: purchased Reaction Biology Corporation

MST4 = molecular target: T17, MST4 (Homo sapiens, UniProt Q9P289); experiment: HotSpot kinase assay; format: biochemical; conditions: read-out: % Enzyme Activity (relative to DMSO controls)
T17 construct: purchased Reaction Biology Corporation

P38b/MAPK11 = molecular target: T18, P38b/MAPK11 (Homo sapiens, UniProt Q15759); experiment: HotSpot kinase assay; format: biochemical; conditions: read-out: % Enzyme Activity (relative to DMSO controls)
T18 construct: purchased Reaction Biology Corporation

PAK1 = molecular target: T19, PAK1 (Homo sapiens, UniProt Q13153); experiment: HotSpot kinase assay; format: biochemical; conditions: read-out: % Enzyme Activity (relative to DMSO controls)
T19 construct: purchased Reaction Biology Corporation

PBK/TOPK = molecular target: T20, PBK/TOPK (Homo sapiens, UniProt Q96KB5); experiment: HotSpot kinase assay; format: biochemical; conditions: read-out: % Enzyme Activity (relative to DMSO controls)
T20 construct: purchased Reaction Biology Corporation

PKCg = molecular target: T21, PKCg (Homo sapiens, UniProt P05129); experiment: HotSpot kinase assay; format: biochemical; conditions: read-out: % Enzyme Activity (relative to DMSO controls)
T21 construct: purchased Reaction Biology Corporation

PKG1a = molecular target: T22, PKG1a (Homo sapiens, UniProt Q13976); experiment: HotSpot kinase assay; format: biochemical; conditions: read-out: % Enzyme Activity (relative to DMSO controls)
T22 construct: purchased Reaction Biology Corporation

PKN3/PRK3 = molecular target: T23, PKN3/PRK3 (Homo sapiens, UniProt Q6P5Z2); experiment: HotSpot kinase assay; format: biochemical; conditions: read-out: % Enzyme Activity (relative to DMSO controls)
T23 construct: purchased Reaction Biology Corporation

PLK2 = molecular target: T24, PLK2 (Homo sapiens, UniProt Q9NYY3); experiment: HotSpot kinase assay; format: biochemical; conditions: read-out: % Enzyme Activity (relative to DMSO controls)
T24 construct: purchased Reaction Biology Corporation

PLK4/SAK = molecular target: T25, PLK4/SAK (Homo sapiens, UniProt O00444); experiment: HotSpot kinase assay; format: biochemical; conditions: read-out: % Enzyme Activity (relative to DMSO controls)
T25 construct: purchased Reaction Biology Corporation

PRKX = molecular target: T26, PRKX (Homo sapiens, UniProt P51817); experiment: HotSpot kinase assay; format: biochemical; conditions: read-out: % Enzyme Activity (relative to DMSO controls)
T26 construct: purchased Reaction Biology Corporation

SRPK1 = molecular target: T27, SRPK1 (Homo sapiens, UniProt Q96SB4); experiment: HotSpot kinase assay; format: biochemical; conditions: read-out: % Enzyme Activity (relative to DMSO controls)
T27 construct: purchased Reaction Biology Corporation

STK32C/YANK3 = molecular target: T28, STK32C/YANK3 (Homo sapiens, UniProt Q86UX6); experiment: HotSpot kinase assay; format: biochemical; conditions: read-out: % Enzyme Activity (relative to DMSO controls)
T28 construct: purchased Reaction Biology Corporation

STK33 = molecular target: T29, STK33 (Homo sapiens, UniProt Q9BYT3); experiment: HotSpot kinase assay; format: biochemical; conditions: read-out: % Enzyme Activity (relative to DMSO controls)
T29 construct: purchased Reaction Biology Corporation

STK39/STLK3 = molecular target: T30, STK39/STLK3 (Homo sapiens, UniProt Q9UEW8); experiment: HotSpot kinase assay; format: biochemical; conditions: read-out: % Enzyme Activity (relative to DMSO controls)
T30 construct: purchased Reaction Biology Corporation

DNA-PK = molecular target: T31, DNA-PK (Homo sapiens, UniProt P78527); experiment: HotSpot kinase assay; format: biochemical; conditions: read-out: % Enzyme Activity (relative to DMSO controls)
T31 construct: purchased Reaction Biology Corporation

mTOR/FRAP1 = molecular target: T32, mTOR/FRAP1 (Homo sapiens, UniProt P42345); experiment: HotSpot kinase assay; format: biochemical; conditions: read-out: % Enzyme Activity (relative to DMSO controls)
T32 construct: purchased Reaction Biology Corporation

HSV-2(G) [1] = experiment: synchronized infection (entry) assay, CaSki; format: cell-based
Description: To quantify viral entry, cells were synchronously infected by allowing virus to bind to cells at 4°C for 4 h, washed, and then transferred to 37 °C. CIMSS or control DMSO was added at the time of temperature shift. At indicated times post-temperature shift, the cells were treated with a low pH buffer to inactivate virus that had not penetrated, washed, overlaid with medium containing methyl cellulose and viral plaques were counted at 48 h. Entry was also assessed by immunoblotting nuclear extracts for VP16. […] Nuclear extracts were prepared after 1 h and analyzed by western blot with antibodies targeting VP16, histone H1 and golgin-97[5]. The non-nuclear fraction was also probed for golgin-97 as a positive control. […] After 1 or 4 h of incubation, the cells were fixed. Plasma membranes were stained using Image -IT^TM LIVE Plasma Membrane kit and nuclei were stained with DAPI (Thermo Fisher Scientific, Cat 134406). The percentage of GFP + nuclei was determined by counting ~200 cells over 3–4 fields. Images were obtained with Leica SP8 microscope (objective 63 × 1.4); xz images were captured with optical slice 0.6 µm, 25–30 slices per image.

HSV-2(G) [2] = experiment: HSV binding assay (gD western blot), HaCat cells; format: cell-based; conditions: 10 μM, 4 h at 4 °C
Description: After 48 h incubation, plaques were counted by immunoassay using an anti–human IgG antibody peroxidase conjugate (PA1-86064, Thermo Fisher)[33]. […] Western blots were prepared and probed for gD as a marker of bound virus and β-actin as a control.

PLSCR1 = PLSCR1 phosphorylation (IP/western), HSV-2 infected HaCaT cells; format: cell-based, human; conditions: 10 μM, 30 min

T8 sequence (P00533 25-1210): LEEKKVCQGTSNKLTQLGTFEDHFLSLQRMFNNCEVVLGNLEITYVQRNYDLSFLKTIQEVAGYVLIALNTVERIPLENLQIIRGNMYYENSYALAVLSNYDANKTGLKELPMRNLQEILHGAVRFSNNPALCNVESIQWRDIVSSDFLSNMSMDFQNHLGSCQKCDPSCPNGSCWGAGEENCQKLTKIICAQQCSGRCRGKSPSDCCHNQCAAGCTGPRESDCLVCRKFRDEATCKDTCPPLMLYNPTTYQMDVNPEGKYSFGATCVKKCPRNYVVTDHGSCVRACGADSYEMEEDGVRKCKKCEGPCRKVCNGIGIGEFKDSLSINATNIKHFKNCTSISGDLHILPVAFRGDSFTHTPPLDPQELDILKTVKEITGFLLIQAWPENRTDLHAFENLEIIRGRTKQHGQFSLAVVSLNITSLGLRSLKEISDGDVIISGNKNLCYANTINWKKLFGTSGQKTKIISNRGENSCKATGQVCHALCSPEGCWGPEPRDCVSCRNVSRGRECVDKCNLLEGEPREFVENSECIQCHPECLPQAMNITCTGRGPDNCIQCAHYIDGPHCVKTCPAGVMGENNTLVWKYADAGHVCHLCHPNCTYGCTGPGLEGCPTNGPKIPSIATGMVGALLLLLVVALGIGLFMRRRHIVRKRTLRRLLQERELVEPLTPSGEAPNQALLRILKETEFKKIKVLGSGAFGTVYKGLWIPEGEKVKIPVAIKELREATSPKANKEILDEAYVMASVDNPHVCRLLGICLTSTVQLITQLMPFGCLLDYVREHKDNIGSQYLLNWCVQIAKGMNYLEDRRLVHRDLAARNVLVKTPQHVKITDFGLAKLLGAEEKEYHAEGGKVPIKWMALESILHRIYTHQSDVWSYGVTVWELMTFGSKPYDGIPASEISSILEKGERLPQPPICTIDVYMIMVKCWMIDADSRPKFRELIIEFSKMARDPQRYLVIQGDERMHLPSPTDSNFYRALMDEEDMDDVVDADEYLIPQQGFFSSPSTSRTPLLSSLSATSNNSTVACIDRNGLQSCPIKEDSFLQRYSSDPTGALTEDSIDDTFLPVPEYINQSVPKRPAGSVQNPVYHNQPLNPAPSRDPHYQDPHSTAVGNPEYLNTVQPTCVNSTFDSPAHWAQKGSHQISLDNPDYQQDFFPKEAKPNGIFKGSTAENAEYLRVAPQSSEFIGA
T9 sequence (P29317 24-976): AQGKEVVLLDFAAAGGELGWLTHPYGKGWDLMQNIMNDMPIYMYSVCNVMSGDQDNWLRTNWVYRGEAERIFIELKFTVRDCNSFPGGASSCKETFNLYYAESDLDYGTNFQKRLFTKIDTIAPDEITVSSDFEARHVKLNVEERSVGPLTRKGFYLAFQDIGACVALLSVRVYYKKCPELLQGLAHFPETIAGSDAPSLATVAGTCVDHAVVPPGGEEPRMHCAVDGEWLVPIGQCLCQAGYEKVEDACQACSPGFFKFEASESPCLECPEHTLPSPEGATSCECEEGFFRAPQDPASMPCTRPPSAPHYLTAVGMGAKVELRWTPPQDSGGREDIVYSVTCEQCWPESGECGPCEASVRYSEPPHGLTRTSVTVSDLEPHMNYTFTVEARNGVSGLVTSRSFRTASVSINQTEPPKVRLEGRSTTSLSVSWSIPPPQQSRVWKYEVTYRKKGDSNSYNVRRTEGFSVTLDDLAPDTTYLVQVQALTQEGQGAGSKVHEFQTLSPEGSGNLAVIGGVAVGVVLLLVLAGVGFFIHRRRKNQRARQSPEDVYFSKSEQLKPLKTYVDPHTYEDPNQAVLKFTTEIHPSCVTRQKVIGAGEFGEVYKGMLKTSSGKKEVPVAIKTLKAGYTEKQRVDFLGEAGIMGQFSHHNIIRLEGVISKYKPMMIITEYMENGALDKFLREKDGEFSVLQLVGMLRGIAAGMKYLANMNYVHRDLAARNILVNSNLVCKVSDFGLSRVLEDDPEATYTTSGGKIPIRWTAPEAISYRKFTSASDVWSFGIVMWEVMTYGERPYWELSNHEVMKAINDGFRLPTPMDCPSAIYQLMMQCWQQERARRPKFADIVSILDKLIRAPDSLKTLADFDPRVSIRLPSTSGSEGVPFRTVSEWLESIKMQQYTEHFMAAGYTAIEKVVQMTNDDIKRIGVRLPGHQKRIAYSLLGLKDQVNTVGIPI
T15 sequence (P06239 whole entry): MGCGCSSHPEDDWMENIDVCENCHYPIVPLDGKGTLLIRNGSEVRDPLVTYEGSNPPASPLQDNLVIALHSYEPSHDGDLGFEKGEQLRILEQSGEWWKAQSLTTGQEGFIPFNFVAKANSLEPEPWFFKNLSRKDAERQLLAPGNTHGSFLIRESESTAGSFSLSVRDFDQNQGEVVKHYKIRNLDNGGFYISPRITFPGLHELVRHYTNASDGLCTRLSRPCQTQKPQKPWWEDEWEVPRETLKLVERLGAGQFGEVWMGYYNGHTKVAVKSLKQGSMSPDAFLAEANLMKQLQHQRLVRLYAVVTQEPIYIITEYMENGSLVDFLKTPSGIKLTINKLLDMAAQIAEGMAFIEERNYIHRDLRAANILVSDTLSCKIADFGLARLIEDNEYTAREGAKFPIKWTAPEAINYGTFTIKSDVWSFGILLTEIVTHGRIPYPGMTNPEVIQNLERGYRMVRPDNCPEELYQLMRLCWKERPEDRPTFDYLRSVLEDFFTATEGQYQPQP
T4 sequence (Q00526 whole entry): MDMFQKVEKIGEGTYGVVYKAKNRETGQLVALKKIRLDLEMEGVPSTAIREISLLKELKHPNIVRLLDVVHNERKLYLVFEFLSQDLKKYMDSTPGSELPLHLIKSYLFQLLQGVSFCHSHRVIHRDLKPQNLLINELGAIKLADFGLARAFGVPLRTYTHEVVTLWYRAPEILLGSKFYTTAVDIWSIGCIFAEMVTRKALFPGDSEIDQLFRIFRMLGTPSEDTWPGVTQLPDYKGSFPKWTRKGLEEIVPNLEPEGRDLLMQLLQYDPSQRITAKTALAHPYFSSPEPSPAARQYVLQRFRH
T4 sequence (P24864 whole entry, further chain): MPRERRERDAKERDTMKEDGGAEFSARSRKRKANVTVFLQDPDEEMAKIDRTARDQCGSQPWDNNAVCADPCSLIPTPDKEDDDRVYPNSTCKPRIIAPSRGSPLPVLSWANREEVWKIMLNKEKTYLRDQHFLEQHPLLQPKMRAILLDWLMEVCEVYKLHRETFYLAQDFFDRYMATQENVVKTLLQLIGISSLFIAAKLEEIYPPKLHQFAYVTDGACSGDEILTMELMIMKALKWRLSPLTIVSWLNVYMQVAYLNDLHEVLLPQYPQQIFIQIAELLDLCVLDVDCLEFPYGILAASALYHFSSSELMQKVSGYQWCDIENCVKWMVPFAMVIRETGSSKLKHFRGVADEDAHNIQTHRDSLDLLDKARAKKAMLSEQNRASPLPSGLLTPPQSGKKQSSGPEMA
T5 sequence (P48729 whole entry): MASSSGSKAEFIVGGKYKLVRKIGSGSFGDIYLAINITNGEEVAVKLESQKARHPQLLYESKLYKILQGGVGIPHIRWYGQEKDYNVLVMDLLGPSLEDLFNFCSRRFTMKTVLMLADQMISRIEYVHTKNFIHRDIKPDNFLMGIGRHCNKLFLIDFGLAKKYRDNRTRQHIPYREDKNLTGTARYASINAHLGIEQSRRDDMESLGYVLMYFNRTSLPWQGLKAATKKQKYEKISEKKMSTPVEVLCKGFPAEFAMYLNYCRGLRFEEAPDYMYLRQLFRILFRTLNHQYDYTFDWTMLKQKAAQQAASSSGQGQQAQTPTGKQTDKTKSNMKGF
T17 sequence (Q9P289 whole entry): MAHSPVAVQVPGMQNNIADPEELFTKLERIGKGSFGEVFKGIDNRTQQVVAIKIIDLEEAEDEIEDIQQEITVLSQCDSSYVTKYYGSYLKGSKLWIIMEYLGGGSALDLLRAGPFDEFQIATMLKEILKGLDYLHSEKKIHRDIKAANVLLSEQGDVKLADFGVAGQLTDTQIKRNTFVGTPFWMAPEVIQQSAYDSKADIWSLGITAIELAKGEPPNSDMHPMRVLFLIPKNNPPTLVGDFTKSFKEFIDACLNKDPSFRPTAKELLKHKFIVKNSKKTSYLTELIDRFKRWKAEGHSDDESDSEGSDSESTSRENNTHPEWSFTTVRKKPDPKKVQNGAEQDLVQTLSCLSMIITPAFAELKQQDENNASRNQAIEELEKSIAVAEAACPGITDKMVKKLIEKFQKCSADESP

CO[C@@H]1[C@H](N(C)C(=O)CCC(=O)NCc2cn(CCCS(=O)(=O)O)nn2)C[C@H]2O[C@]1(C)n1c3ccccc3c3c4c(c5c6ccccc6n2c5c31)C(=O)NC4 [CIMSS]
remaining activity at 10 µM (ARK5/NUAK1): 1.83% | remaining activity at 10 µM (CDK19/cyclin C): 37.9% | remaining activity at 10 µM (CDK2/cyclin E2): 11.8% | remaining activity at 10 µM (CDK3/cyclin E): 13.9% | remaining activity at 10 µM (CK1a1): 98.3% | remaining activity at 10 µM (DYRK1/DYRK1A): 2.33% | remaining activity at 10 µM (DYRK1B): 0.41% | IC50 (EGFR; Supplementary Table 1, read-out: IC50 (Molar concentration)): 1610 nM | remaining activity at 10 µM (EGFR; read-out: % Enzyme Activity (relative to DMSO controls), 10µM): 17.4% | remaining activity at 10 µM (EPHA2): 33.5% | remaining activity at 10 µM (ERN1/IRE1): 8.49% | remaining activity at 10 µM (FGFR1): 6.31% | remaining activity at 10 µM (FGFR4): 4.31% | remaining activity at 10 µM (FLT3): 4.55% | remaining activity at 10 µM (IKKa/CHUK): 31.6% | remaining activity at 10 µM (LCK): 3.41% | remaining activity at 10 µM (MKK7): 96.2% | remaining activity at 10 µM (MST4): 1.35% | remaining activity at 10 µM (P38b/MAPK11): 84.5% | remaining activity at 10 µM (PAK1): 8.08% | remaining activity at 10 µM (PBK/TOPK): 69.8% | remaining activity at 10 µM (PKCg): 1.77% | remaining activity at 10 µM (PKG1a): 7.02% | remaining activity at 10 µM (PKN3/PRK3): 20.2% | remaining activity at 10 µM (PLK2): 27.4% | remaining activity at 10 µM (PLK4/SAK): 6.73% | remaining activity at 10 µM (PRKX): 9.56% | remaining activity at 10 µM (SRPK1): 9.17% | remaining activity at 10 µM (STK32C/YANK3): 20.5% | remaining activity at 10 µM (STK33): 9.17% | remaining activity at 10 µM (STK39/STLK3): 19.6% | remaining activity at 10 µM (DNA-PK): 98.2% | remaining activity at 10 µM (mTOR/FRAP1): 112% | plaques counted at 48 h (HSV-2(G) [1]; 0.5 h post-temperature shift (Fig 3b source data)): 49 and 51 | plaques counted at 48 h (HSV-2(G) [1]; 1 h): 48 and 46 | plaques counted at 48 h (HSV-2(G) [1]; 2 h): 52 and 37 | HSV binding to cells (HSV-2(G) [2]): did not block | Phosphorylation of PLSCR1 (PLSCR1): not
